# Data reported in patent US11219209B2, “Method of reducing crop damage” (Bayer Aktiengesellschaft, priority 2018, dated 2022).
# How the values were obtained:
# Format in all cases: in vivo
# winter wheat, TRZAW [1] = assay: Method A: safener seed treatment, herbicide post-emergence, greenhouse crop damage test; conditions: safener seed treatment 0.5 g/kg only, no herbicide
# Experimental: (§1) For the safener seed treatment, sufficient seeds were weighed into screw top glass bottles approximately twice the volume of the seeds.
# (§2) The safener (mefenpyr-diethyl, formulated as suspension concentrate (SC)) was weighed out so that the required rates (g a.i./kg seed) would be obtained, dissolved in water (1 ml water per 10 g of seeds), and added to the seeds to produce a slurry.
# (§3) The bottles were capped and then placed in an overhead shaker (set at medium speed for up to 1 hour) so that the seeds were evenly coated with the slurry. The bottles were uncapped and the seeds were sown as described above.
# (§4) For the seed treatment process, the blind formulation (the SC formulation without the safener mefenpyr-diethyl) was used as seed treatment as described above.
# Post-emergence application of the herbicide was done when the plants had reached growth stage BBCH11.
# (§5) After application, the test plants were kept in the greenhouse under good growth conditions.
# (§6) Values in the table below are mean values from at least 3 replicates.
# winter wheat, TRZAW [2] = assay: Method C: safener seed treatment, herbicide and safener tank mix post-emergence, greenhouse crop damage test; conditions: no herbicide
# Experimental: as §1, §2, §3, §4
# Post-emergence application was done when the plants had reached growth stage BBCH11.
# The safener (mefenpyr-diethyl) was formulated as wettable powder (WP).
# The compounds were sprayed onto the green parts of the plants as an aqueous suspension at an equivalent water application rate of 300 l/ha.
# (§7) The combination of herbicide and safener was applied as a tank mix.
# as §5, §6
# winter wheat, TRZAW [3] = assay: Method D: safener seed treatment, herbicide and safener tank mix pre-emergence, greenhouse crop damage test; conditions: no herbicide
# Experimental: as §1, §2, §3, §4
# The compounds were sprayed to the soil surface as an aqueous suspension at an equivalent water application rate of 300 l/ha.
# as §7, §5, §6
# [4] = safener seed treatment 0.5 g/kg only
smiles,measurement,setting,value
"CCOC(=O)C1=NN(c2ccc(Cl)cc2Cl)C(C)(C(=O)OCC)C1 (centres unmarked) [Safener seed treatment, ethyl 1-(2,4-dichlorophenyl)-5-(ethoxycarbonyl)-5-methyl-2-pyrazoline-3-carboxylate]",% crop damage,"winter wheat, TRZAW [1]",0%
same,% crop damage,"winter wheat, TRZAW [2]; safener 200 g/ha in tank mix only, post-emergence, 14 days after application",5%
same,% crop damage,"winter wheat, TRZAW [2]; [4]",0%
same,% crop damage,"winter wheat, TRZAW [3]; safener 200 g/ha in tank mix only, pre-emergence, 14 days after application",5%
same,% crop damage,"winter wheat, TRZAW [3]; [4]",2%
